Laboratory results reported in the CheMixHub viscosity set.
Where “and” joins values, the source holds several entries; their conditions need not be identical. Identical values can stand only once. ± gives the uncertainty stated by the source. Blank lines part the entries; values can stand above or below the compound they belong to.

Compound: BrCCBr
viscosity (298.15 K, 101 kPa): 1.613 ± 0.021 mPa·s
viscosity (298.15 K, 101.33 kPa): 1.616 ± 0.019 mPa·s and 1.564 ± 0.016 mPa·s
viscosity (308.15 K, 101.33 kPa): 1.384 ± 0.016 mPa·s
viscosity (323.15 K, 101.33 kPa): 1.107 ± 0.011 mPa·s

Compound: Brc1ccccc1
viscosity (293.15 K, 101 kPa): 1.125 ± 0.019 mPa·s
viscosity (293.15 K, 101.33 kPa): 1.142 ± 0.028 mPa·s
viscosity (298.15 K, 101 kPa): 1.07 ± 0.0098 mPa·s and 1.068 ± 0.009 mPa·s
viscosity (303.15 K, 101.33 kPa): 0.985 ± 0.007 mPa·s
viscosity (313.15 K, 101.33 kPa): 0.895 ± 0.007 mPa·s
viscosity (318 K, 101.3 kPa): 0.8536 ± 0.031 mPa·s
viscosity (318 K, 101.33 kPa): 0.8536 ± 0.039 mPa·s
viscosity (318.15 K, 101 kPa): 0.7925 ± 0.021 mPa·s and 0.836 ± 0.023 mPa·s
viscosity (323.15 K, 101 kPa): 0.784 ± 0.021 mPa·s

viscosity (298.15 K, 101 kPa): 0.8829 ± 0.011 mPa·s
Compound: C#Cc1ccccc1

Compound: C1=C[C@H]2[C@@H](C1)[C@H]1C=C[C@@H]2C1
viscosity (293.15 K, 101.2 kPa): 4.463 ± 0.23 mPa·s
viscosity (298.15 K, 101.2 kPa): 3.918 ± 0.2 mPa·s
viscosity (303.15 K, 101.2 kPa): 3.456 ± 0.18 mPa·s
viscosity (308.15 K, 101.2 kPa): 3.126 ± 0.16 mPa·s
viscosity (313.15 K, 101.2 kPa): 2.81 ± 0.14 mPa·s
viscosity (318.15 K, 101.2 kPa): 2.539 ± 0.13 mPa·s

viscosity (298 K, 101.33 kPa): 16.31 ± 0.24 mPa·s
viscosity (303 K, 101.33 kPa): 12.62 ± 0.17 mPa·s
viscosity (308 K, 101.33 kPa): 10.03 ± 0.13 mPa·s
viscosity (313 K, 101.33 kPa): 8.12 ± 0.11 mPa·s
Compound: CC(=O)OCC(COC(C)=O)OC(C)=O

viscosity (298.15 K, 100 kPa): 594.8 ± 50 mPa·s
viscosity (298.15 K, 101 kPa): 441 ± 48 mPa·s
viscosity (303.15 K, 100 kPa): 399.6 ± 29 mPa·s
viscosity (313.15 K, 100 kPa): 200.1 ± 11 mPa·s
viscosity (313.15 K, 101 kPa): 154.5 ± 17 mPa·s
viscosity (314.3 K, 101 kPa): 125.7 ± 14 mPa·s and 138.3 ± 14 mPa·s
viscosity (323.15 K, 100 kPa): 111.7 ± 4.5 mPa·s
Compound: CC(=O)[O-].CCCC[n+]1ccn(C)c1

Compound: CC(C)N
viscosity (298.15 K, 101 kPa): 0.278 ± 0.002 mPa·s

Compound: CC(C)[N+](=O)[O-]
viscosity (293.15 K, 101.33 kPa): 0.771 ± 0.008 mPa·s

Compound: CCCC#N
viscosity (298.15 K, 101 kPa): 0.502 ± 0.04 mPa·s

Compound: COC(=O)CC(=O)OC
viscosity (303.15 K, 101 kPa): 1.804 ± 0.018 mPa·s

Compound: COc1ccccc1O
viscosity (303.15 K, 101 kPa): 4.45 ± 0.12 mPa·s
viscosity (308.15 K, 101 kPa): 4.138 ± 0.051 mPa·s

viscosity (298.15 K, 101 kPa): 2.5 ± 0.11 mPa·s
viscosity (308.15 K, 101 kPa): 2.12 ± 0.09 mPa·s
viscosity (318.15 K, 101 kPa): 1.65 ± 0.07 mPa·s
viscosity (323.15 K, 101 kPa): 1.52 ± 0.07 mPa·s
Compound: FC(F)C(F)(F)OCC(F)(F)C(F)(F)C(F)(F)C(F)F

viscosity (293.15 K, 101.33 kPa): 1.736 ± 0.041 mPa·s
viscosity (298.15 K, 101 kPa): 1.513 ± 0.041 mPa·s
viscosity (308.15 K, 101 kPa): 1.318 ± 0.036 mPa·s
viscosity (318.15 K, 101 kPa): 1.162 ± 0.031 mPa·s
viscosity (323.15 K, 101 kPa): 1.083 ± 0.029 mPa·s
Compound: Ic1ccccc1

Compound: Nc1cccc(Cl)c1Cl
viscosity (313.15 K, 101 kPa): 3.74 ± 0.08 mPa·s

viscosity (303.15 K, 101 kPa): 2.758 ± 0.19 mPa·s
viscosity (308.15 K, 101 kPa): 2.496 ± 0.17 mPa·s
viscosity (313.15 K, 101 kPa): 2.313 ± 0.16 mPa·s
viscosity (318.15 K, 101 kPa): 2.119 ± 0.15 mPa·s
Compound: O=C1CCCCO1
